Measured values as given in patent publication US8530381B2, “Active compound combinations” (Bayer CropScience AG, priority 2009, dated 2013).

Columns and labels:
Pyrenophora teres = assay: Pyrenophora teres-test (barley)/preventive; type: in vivo; conditions: preventive spray, evaluated 8 days after inoculation
Protocol: (§1) Here, the efficacy is determined in %. 0% means an efficacy which corresponds to that of the control, whereas an efficacy of 100% means that no infection is observed.
(§2) If the actual fungicidal action exceeds the calculated value, the action of the combination is superadditive, i.e. a synergistic effect is present. In this case, the actually observed efficacy must exceed the value calculated using the above formula for the expected efficacy (E).
Pyrenophora teres-Test (Barley)/Preventive
(§3) Solvent: 49 parts by weight of n,n-dimethylacetamid
(§4) Emulsifier: 1 part by weight of alkylaryl polyglycol ether
(§5) To produce a suitable preparation of active compound, 1 part by weight of active compound or active compound combination is mixed with the stated amounts of solvent and emulsifier, and the concentrate is diluted with water to the desired concentration.
(§6) To test for preventive activity, young plants are sprayed with the preparation of active compound or active compound combination at the stated rate of application.
After the spray coating has been dried, the plants are sprayed with a spore suspension of Pyrenophora teres. The plants remain for 48 hours in an incubation cabinet at approximately 20° C. and a relative atmospheric humidity of approximately 100%. […]
The test is evaluated 8 days after the inoculation. […]

[1] = system: Blumeria graminis f.sp. hordei; assay: Blumeria-test (barley)/preventive; type: in vivo; conditions: preventive spray, application rate 62,5 g/ha, evaluated 7 days after inoculation
Protocol: as §1, §2
Blumeria Test (Barley)/Preventive
as §3, §4, §5, §6
After the spray coating has been dried, the plants are dusted with spores of Blumeria graminis f.sp. hordei.
The plants are placed in the greenhouse at a temperature of approximately 18° C. and a relative atmospheric humidity of approximately 80% to promote the development of mildew pustules.
The test is evaluated 7 days after the inoculation. 0% means an efficacy which corresponds to that of the control, while an efficacy of 100% means that no disease is observed.

SMILES	Efficacy in % found (Pyrenophora teres; application rate 125 g/ha) [%]	Efficacy in % found [1] [%]	Efficacy in % found (Pyrenophora teres; application rate 62,5 g/ha) [%]
OC(Cc1ccccc1Cl)(Cn1nc[nH]c1=S)C1(Cl)CC1 (centres unmarked) [1.41, prothioconazole]	70	–	–
Cn1cc(C(=O)Nc2ccc(F)cc2-c2ccc(Cl)c(Cl)c2)c(C(F)F)n1 [2.2, bixafen]	–	10	–
CO/N=C(/C(=O)OC)c1ccccc1CO/N=C(\C)c1cccc(C(F)(F)F)c1 [3.17, trifloxystrobin]	–	80	–
CCN(C)/C=N/c1cc(C)c(Oc2nc(Cc3ccc(Cl)cc3)ns2)cc1C [I-a]	–	40	40
